Reference: patent publication US20210069272A1, “METHODS FOR SKIN WHITENING, ULTRAVIOLET RADIATION PROTECTION AND SUPPRESSION OF GLYCATION USING GREEN MANGO EXTRACTS AND COMPOUNDS OBTAINED THEREFROM” (TCI CO., LTD., priority 2019, published 2021)

Tests used:
melanoma cells B16F10 = test: Melanin production assay in melanoma cells B16F10; type: cell-based, mouse; conditions: 0.25 mg/mL, 48 hours
Method: The melanin levels in B 16F10 melanoma cells were determined according to procedures described below. Cells were harvested from the cell culture treated as indicated. The cells were washed with PBS and treated with trypsin for 3 minutes. The suspended cells were collected by centrifugation (400×g, 5 minutes), washed twice with PBS, and then resuspended in 200 μL of PBS. The cell suspension was frozen in liquid nitrogen for 10 minutes and then left at room temperature for about 30 minutes until completely thawed, followed by centrifugation (12,000 g, 3 minutes) to remove the supernatant. The remaining cell pellet was mixed thoroughly with 120 μL of 1 N sodium hydroxide aqueous solution, and heated at 60° C. for 1 hour to obtain a cell lysate containing dissolved melanin. 100 μL of the cell lysate was transferred to a 96-well plate, and the absorbance at 450 nm (OD450) was measured using an enzyme-linked immunosorbent assay (ELISA) reader (BioTek). The relative melanin level is calculated according to the following formula: Relative melanin level (%)=(OD450each group/OD450mock control)×100% In order to examine the effect of the green mango extract on melanin production, the melanoma cells B16F10 was assayed for melanin production after treatment with the green mango extract described in Example 1. […]

porcine collagen = test: Anti-glycation assay, AGEs formation due to collagen glycation with fructose; type: biochemical; conditions: 100 μg/mL aqueous solution, 50° C., 24 hours
Method: In order to evaluate the anti-glycation activity of the green mango extract, an anti-glycation assay was performed to determine the inhibitory effect of the green mango extract described in Example 1 on glycation of porcine collagen. Briefly, a 60 mg/mL collagen solution (containing 0.06% sodium azide) and a 1.5 M fructose solution were first prepared using a 200 mM phosphate buffer (pH 7.4). For collagen to undergo glycation, a mixture of 0.2 mL of the collagen solution and 0.2 mL of the fructose solution was mixed thoroughly with 0.2 mL of the green mango extract sample at 140, 70, 14, 1.4, or 0.14 mg/mL (diluted with deionized water), or mixed with deionized water (as a control). The reaction mixtures were incubated at 50° C. for 24 hours. Thereafter, aminoguanidine (AG, purchased from Sigma) was added to terminate the glycation reaction. […] The reaction mixtures were incubated at 50° C. for 24 hours, and the fluorescence intensity of each of the mixtures (0.1 mL) at 0 hours and 24 hours was measured to calculate the rate of AGEs formation due to collagen glycation.

O=c1cc(CO)occ1O [kojic acid]
inhibitory effect on melanin production, green mango extract versus kojic acid at the same concentration (melanoma cells B16F10): comparable

O=C(OCC1OC(OC(=O)c2cc(O)c(O)c(O)c2)C(OC(=O)c2cc(O)c(O)c(O)c2)C(OC(=O)c2cc(O)c(O)c(O)c2)C1OC(=O)c1cc(O)c(O)c(O)c1)c1cc(O)c(O)c(O)c1 (stereo not drawn) [formula (II)]
AGEs formation compared to the control (porcine collagen): ~73.7%

O=C(OCC1OC(OC(=O)c2cc(O)c(O)c(O)c2)C(OC(=O)c2cc(O)c(O)c(O)c2)C(OC(=O)c2cc(O)c(O)c(O)c2)C1OC(=O)c1cc(O)c(O)c(O)c1)c1ccc(O)cc1 (stereo not drawn) [formula (I)]
AGEs formation compared to the control (porcine collagen): about 60.2%
